Reference: patent US8697710B2, “Optionally substituted 3-amino-4-(thioxo or imino)-4,5-dihydro-2H-pyrazolo [3,4-d]pyrimidin-6(7H)-ones” (Intra-Cellular Therapies, Inc., priority 2008, dated 2014)

Target: Phosphodiesterase 1B (PDE1B)
Assay: Measurement of PDE1B inhibition in vitro using IMAP phosphodiesterase assay kit
Type: biochemical, bovine
Conditions: PDE1 inhibitory activity, IMAP fluorescence polarization, cGMP-fluorescein substrate
From the text: Measurement of PDE1B Inhibition in Vitro Using IMAP Phosphodiesterase Assay Kit
Phosphodiesterase 1B (PDE1B) is a calcium/calmodulin dependent phosphodiesterase enzyme that converts cyclic guanosine monophosphate (cGMP) to 5′-guanosine monophosphate (5′-GMP). PDE can also convert a modified cGMP substrate, such as the fluorescent molecule cGMP-fluorescein, to the corresponding GMP-fluorescein. The generation of GMP-fluorescein from cGMP-fluorescein can be quantitated, using, for example, the IMAP (Molecular Devices, Sunnyvale, Calif.) immobilized-metal affinity particle reagent.
Briefly, the IMAP reagent binds with high affinity to the free 5′-phosphate that is found in GMP-fluorescein and not in cGMP-fluorescein. […] Small fluorophores that are bound up in a large, slowly tumbling, complex can be distinguished from unbound fluorophores, because the photons emitted as they fluoresce retain the same polarity as the photons used to excite the fluorescence.
In the phosphodiesterase assay, cGMP-fluorescein, which cannot be bound to IMAP, and therefore retains little fluorescence polarization, is converted to GMP-fluorescein, which, when bound to IMAP, yields a large increase in fluorescence polarization (Δmp). Inhibition of phosphodiesterase, therefore, is detected as a decrease in Δmp. […]
A decrease in GMP concentration, measured as decreased Δmp, is indicative of inhibition of PDE activity.

IC50: < 200 nM
SMILES: C/N=c1/c2c(Nc3ccccc3)n(Cc3ccc(-c4ccccn4)cc3)nc2n(CC(C)C)c(=O)n1C [Example 2, 7-Isobutyl-5-methyl-4-(methylimino)-3-(phenylamino)-2-(4-(pyridin-2-yl)benzyl)-4,5-dihydro-2H-pyrazolo[3,4-d]pyrimidin-6(7H)-one]
